The IC50 is the concentration that gives 50% inhibition.

Sequence of recombinant human cGAS (Q8N884 whole entry): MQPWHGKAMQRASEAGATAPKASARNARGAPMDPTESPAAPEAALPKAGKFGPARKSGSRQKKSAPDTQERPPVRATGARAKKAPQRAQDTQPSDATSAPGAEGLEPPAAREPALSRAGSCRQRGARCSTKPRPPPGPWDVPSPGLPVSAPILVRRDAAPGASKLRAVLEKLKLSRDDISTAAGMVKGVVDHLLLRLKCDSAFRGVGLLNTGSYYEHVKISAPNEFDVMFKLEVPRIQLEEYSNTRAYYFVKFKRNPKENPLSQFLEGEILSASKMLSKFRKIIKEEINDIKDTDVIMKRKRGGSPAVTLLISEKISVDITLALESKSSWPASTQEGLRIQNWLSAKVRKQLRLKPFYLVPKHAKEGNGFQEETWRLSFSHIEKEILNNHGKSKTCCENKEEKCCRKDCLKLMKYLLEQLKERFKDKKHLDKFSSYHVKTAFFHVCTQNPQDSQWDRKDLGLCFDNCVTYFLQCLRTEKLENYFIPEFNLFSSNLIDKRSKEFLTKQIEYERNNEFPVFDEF

The first assay concerns the target recombinant human cGAS (Homo sapiens (Human), UniProt Q8N884). Description: In vitro inhibition assay of cGAS activity (cGAMP production, RapidFire mass spectrometry). In kind it is biochemical. To be noted: 10 nM recombinant human cGAS, 60 nM 75-bp dsDNA, ATP, GTP, room temperature 3 hours, read-out: IC50 (μM), In vitro inhibition assay for Compounds 1-94. The procedure:
Expression and Purification of Recombinant cGAS Protein: Insert cDNA encoding full-length of human cGAS into a modified bacterial expression vector containing an in-frame His6-tag. Induce the E. coli strain BL21(DE3) harboring the plasmid with 1 mM IPTG (Isopropyl β-D-1-thiogalactopyranoside) at 18° C. overnight. Purify the His6-tagged cGAS protein over HISpur Ni-NTA resin in the presence of benzonase and RNase followed by Superdex 200 size exclusion chromatography with storage buffer (50 mM Tris-HCl pH 7.5, 300 mM NaCl, 1 mM DTT, 10% glycerol).
In vitro inhibition assay of cGAS activity: Add a 5 μL mixture containing 10 mM Tris-Cl pH 7.5, 50 mM NaCl, 5 mM MgCl2, 1 mM DTT, 0.01% Triton X-100, 60 nM 75-bp dsDNA, […], 50 μM GTP, 10 nM of recombinant human cGAS, and serial dilutions of a test compound in DMSO to a 384-well plate and incubate at room temperature for 3 hours. Quench the reaction by the addition of 100 μL of stop solution containing 0.1% formic acid and 0.1 μM internal standard (3′3′-difluoro cGAMP). Measure the amount of cGAMP produced by RapidFire 365 mass spectrometry and evaluate inhibitory effect of a compound by plotting percent specific inhibition of cGAMP production against log concentration of the test compound. Calculate IC50 values using a 4-parameter non-linear logistic equation (y=(S0+((SInf−S0)/(1+((qAC50/x)^nHill))))).
With `O=C(O)C1CCn2c(c(-c3cn[nH]c3)c3ccc(Cl)c(Cl)c32)C1` (single isomer, unassigned) [Example 13, 3,4-Dichloro-10-(1H-pyrazol-4-yl)-6,7,8,9-tetrahydropyrido[1,2-a]indole-8-carboxylic acid], the half-inhibitory concentration (IC50) was 0.0117 µM. `O=C(O)C1CCn2c(c(-c3cn[nH]c3)c3ccc(Cl)c(Cl)c32)C1` (single isomer, unassigned) [Example 14, 3,4-Dichloro-10-(1H-pyrazol-4-yl)-6,7,8,9-tetrahydropyrido[1,2-a]indole-8-carboxylic acid]: the concentration for half-maximal inhibition (IC50) was determined as 0.0309 µM. `OCC1CCn2c(c(-c3cn[nH]c3)c3ccc(Cl)c(Cl)c32)C1` (single isomer, unassigned) [Example 15, [3,4-Dichloro-10-(1H-pyrazol-4-yl)-6,7,8,9-tetrahydropyrido[1,2-a]indol-8-yl]methanol]: the IC50 was 0.289 µM. In the case of `OCC1CCn2c(c(-c3cn[nH]c3)c3ccc(Cl)c(Cl)c32)C1` (single isomer, unassigned) [Example 16, [3,4-Dichloro-10-(1H-pyrazol-4-yl)-6,7,8,9-tetrahydropyrido[1,2-a]indol-8-yl]methanol], the IC50 worked out at 0.0674 µM. As for `OC1CCc2c(-c3cn[nH]c3)c3ccc(Cl)c(Cl)c3n2C1` (single isomer, unassigned) [Example 18, 3,4-Dichloro-10-(1H-pyrazol-4-yl)-6,7,8,9-tetrahydropyrido[1,2-a]indol-7-ol], the IC50 came out at 0.152 µM.

For the compound `OC1CCc2c(-c3cn[nH]c3)c3ccc(Cl)c(Cl)c3n2C1` (single isomer, unassigned) [Example 19, 3,4-Dichloro-10-(1H-pyrazol-4-yl)-6,7,8,9-tetrahydropyrido[1,2-a]indol-7-ol], the IC50 amounted to 0.0663 µM. `CC(=O)NC1CCc2c(-c3cn[nH]c3)c3ccc(Cl)c(Cl)c3n2C1` (single isomer, unassigned) [Example 20, N-[3,4-Dichloro-10-(1H-pyrazol-4-yl)-6,7,8,9-tetrahydropyrido[1,2-a]indol-7-yl]acetamide]: the half-inhibitory concentration (IC50) came to 0.155 µM.

As to `CC(=O)NC1CCc2c(-c3cn[nH]c3)c3ccc(Cl)c(Cl)c3n2C1` (single isomer, unassigned) [Example 21, N-[3,4-Dichloro-10-(1H-pyrazol-4-yl)-6,7,8,9-tetrahydropyrido[1,2-a]indol-7-yl]acetamide], the half-maximal inhibitory concentration (IC50) stood at 0.0243 µM. In the case of `CS(=O)(=O)NC1CCc2c(-c3cn[nH]c3)c3ccc(Cl)c(Cl)c3n2C1` (single isomer, unassigned) [Example 22, N-[3,4-Dichloro-10-(1H-pyrazol-4-yl)-6,7,8,9-tetrahydropyrido[1,2-a]indol-7-yl]methanesulfonamide], the IC50 was 0.0225 µM. Consider `CS(=O)(=O)NC1CCc2c(-c3cn[nH]c3)c3ccc(Cl)c(Cl)c3n2C1` (single isomer, unassigned) [Example 23, N-[3,4-Dichloro-10-(1H-pyrazol-4-yl)-6,7,8,9-tetrahydropyrido[1,2-a]indol-7-yl]methanesulfonamide], for which the IC50 stood at 0.0887 µM.

`O=C(O)C1CCCn2c(c(-c3cn[nH]c3)c3ccc(Cl)c(Cl)c32)C1` (single isomer, unassigned) [Example 24, 3,4-Dichloro-11-(1H-pyrazol-4-yl)-7,8,9,10-tetrahydro-6H-azepino[1,2-a]indole-9-carboxylic acid]: the concentration for half-maximal inhibition (IC50) came to 0.0834 µM. In the case of `O=C(O)C1CCCn2c(c(-c3cn[nH]c3)c3ccc(Cl)c(Cl)c32)C1` (single isomer, unassigned) [Example 25, 3,4-Dichloro-11-(1H-pyrazol-4-yl)-7,8,9,10-tetrahydro-6H-azepino[1,2-a]indole-9-carboxylic acid], the half-maximal inhibitory concentration (IC50) amounted to 0.0412 µM.

`CC(=O)NC1CCn2c1c(-c1cn[nH]c1)c1ccc(Cl)c(Cl)c12` (single isomer, unassigned) [Example 26, N-(5,6-Dichloro-9-(1H-pyrazol-4-yl)-2,3-dihydro-1H-pyrrolo[1,2-a]indol-1-yl)acetamide]: the half-maximal inhibitory concentration (IC50) was found to be 0.0229 µM. Regarding `CC(=O)NC1CCn2c1c(-c1cn[nH]c1)c1ccc(Cl)c(Cl)c12` (single isomer, unassigned) [Example 27, N-(5,6-Dichloro-9-(1H-pyrazol-4-yl)-2,3-dihydro-1H-pyrrolo[1,2-a]indol-1-yl)acetamide], the half-inhibitory concentration (IC50) was determined as 0.158 µM. On to `Clc1ccc2c(-c3cn[nH]c3)c[nH]c2c1Cl` [Example 1, 6,7-Dichloro-3-(1H-pyrazol-4-yl)-1H-indole], for which the half-inhibitory concentration (IC50) came out at 0.0863 µM. With `Cc1[nH]c2c(Cl)c(Cl)ccc2c1-c1cn[nH]c1` [Example 2, 6,7-Dichloro-2-methyl-3-(1H-pyrazol-4-yl)-1H-indole], the IC50 was determined as 0.0557 µM. The same measure, in the same setting: then `Cc1c(-c2cn[nH]c2)c2ccc(Cl)c(Cl)c2n1C` [Example 3, 6,7-Dichloro-1,2-dimethyl-3-(1H-pyrazol-4-yl)indole], with 0.0614 µM; and `Cc1[nH]c2c(Cl)c(Cl)ccc2c1-n1ccnc1` [Example 4, 6,7-Dichloro-3-imidazol-1-yl-2-methyl-1H-indole], with 0.0641 µM; and `CC(=O)NCc1[nH]c2c(Cl)c(Cl)ccc2c1-c1cn[nH]c1` [Example 5, N-[[6,7-Dichloro-3-(1H-pyrazol-4-yl)-1H-indol-2-yl]methyl]acetamide], with 0.0246 µM. For `Clc1ccc2c(-c3cn[nH]c3)c(CNc3ccon3)[nH]c2c1Cl` [Example 6, N-[[6,7-Dichloro-3-(1H-pyrazol-4-yl)-1H-indol-2-yl]methyl]isoxazol-3-amine], the half-maximal inhibitory concentration (IC50) stood at 0.0578 µM.

In the case of `O=C1Cn2c(c(-c3cn[nH]c3)c3ccc(Cl)c(Cl)c32)CCN1` [Example 7, 7,8-Dichloro-11-(1H-pyrazol-4-yl)-1,2,3,5-tetrahydro-[1,4]diazepino[1,7-a]indol-4-one], the half-maximal inhibitory concentration (IC50) is 0.0436 µM. Take `O=C1Cn2c(c(-c3cn[nH]c3)c3ccc(Cl)c(Cl)c32)CN1` [Example 8, 6,7-Dichloro-10-(1H-pyrazol-4-yl)-2,4-dihydro-1H-pyrazino[1,2-a]indol-3-one]: the half-maximal inhibitory concentration (IC50) was determined as 0.0531 µM. In the case of `Clc1ccc2c(-c3cn[nH]c3)c(CNc3nncs3)[nH]c2c1Cl` [Example 10, N-[[6,7-Dichloro-3-(1H-pyrazol-4-yl)-1H-indol-2-yl]methyl]-1,3,4-thiadiazol-2-amine], the IC50 came to 0.0629 µM. Consider `Cc1nnc(NCc2[nH]c3c(Cl)c(Cl)ccc3c2-c2cn[nH]c2)s1` [Example 11, N-[[6,7-Dichloro-3-(1H-pyrazol-4-yl)-1H-indol-2-yl]methyl]-5-methyl-1,3,4-thiadiazol-2-amine], for which the IC50 came out at 0.0423 µM. As to `Cn1cnnc1NCc1[nH]c2c(Cl)c(Cl)ccc2c1-c1cn[nH]c1` [Example 12, N-[[6,7-Dichloro-3-(1H-pyrazol-4-yl)-1H-indol-2-yl]methyl]-4-methyl-1,2,4-triazol-3-amine], the half-maximal inhibitory concentration (IC50) came to 0.0649 µM. In the case of `O=C1CCc2c(-c3cn[nH]c3)c3ccc(Cl)c(Cl)c3n2C1` [Example 17, 3,4-Dichloro-10-(1H-pyrazol-4-yl)-8,9-dihydro-6H-pyrido[1,2-a]indol-7-one], the IC50 is 0.0427 µM. With `O=C(Cc1[nH]c2c(Cl)c(Cl)ccc2c1-c1cn[nH]c1)NCc1cnccn1` [Example 28, 2-[6,7-Dichloro-3-(1H-pyrazol-4-yl)-1H-indol-2-yl]-N-(pyrazin-2-ylmethyl)acetamide], the concentration for half-maximal inhibition (IC50) was found to be 0.064 µM. Take `Clc1ccc2c(-n3ccnc3)c[nH]c2c1Cl` [Example 29, 6,7-Dichloro-3-imidazol-1-yl-1H-indole]: the IC50 worked out at 0.0447 µM.

For the compound `Clc1c(Br)ccc2c(-c3cn[nH]c3)c[nH]c12` [Example 30, 6-bromo-7-chloro-3-(1H-pyrazol-4-yl)-1H-indole], the 50% inhibitory concentration (IC50) amounted to 0.034 µM. Turning to `O=C1NCCn2c1c(-c1cn[nH]c1)c1ccc(Cl)c(Cl)c12` [Example 31, 6,7-Dichloro-10-(1H-pyrazol-4-yl)-3,4-dihydro-2H-pyrazino[1,2-a]indol-1-one], the half-maximal inhibitory concentration (IC50) is 0.0462 µM. As to `O=C1c2c(-c3cn[nH]c3)c3ccc(Cl)c(Cl)c3n2CCN1CCO` [Example 32, 6,7-Dichloro-2-(2-hydroxyethyl)-10-(1H-pyrazol-4-yl)-3,4-dihydropyrazino[1,2-a]indol-1-one], the 50% inhibitory concentration (IC50) stood at 0.0411 µM. Turning to `NCCN1CCn2c(c(-c3cn[nH]c3)c3ccc(Cl)c(Cl)c32)C1=O` [Example 33, 2-(2-Aminoethyl)-6,7-dichloro-10-(1H-pyrazol-4-yl)-3,4-dihydropyrazino[1,2-a]indol-1-one], the IC50 is 0.0825 µM. Regarding `Clc1ccc2c(-c3cn[nH]c3)cn(-c3cn[nH]n3)c2c1Cl` [Example 34, 6,7-Dichloro-3-(1H-pyrazol-4-yl)-1-(2H-triazol-4-yl)indole], the IC50 came to 0.0691 µM.

The assay is the same for the next values; noted with them: 10 nM recombinant human cGAS, 60 nM 75-bp dsDNA, ATP, GTP, room temperature 3 hours, read-out: IC50 (μM), In vitro inhibition assay for Compounds 95-348.
`O[C@@H]1CC[C@@H](Oc2cc(Cl)c(Cl)c3[nH]cc(-c4cn[nH]c4)c23)C1` (racemic) [Example 99, trans-3-((6,7-Dichloro-3-(1H-pyrazol-4-yl)-1H-indol-4-yl)oxy)cyclopentan-1-ol (racemic mixture)]: the IC50 was found to be 0.0593 µM.

The values are drawn from patent publication US20230391786A1, “cGAS INHIBITORS” (Eli Lilly and Company, priority 2022, published 2023).
